Experiments:
[1] = Lipid clearance: lipid level in mouse liver tissue (LC-MS/MS); format: in vivo; details: for % Dose Remaining in Liver 6 h: Table 3D, intravenous; for % Remaining dose at 6 h / % Remaining dose at 24 h: Table 3E, mouse liver
Procedure: Quantification of Lipid by LC-MS/MS: Liver samples were homogenized following addition of 19 eq. (w/v) of water (DF=20). Protein was precipitated and analyzed against calibration standards prepared in matching blank. Chromatographic separation and quantification was accomplished with a LC-MS/MS System. Samples were injected and separated via HPLC A triple-quadrupole MS/MS system operated in positive ion mode was used for signal detection.

[2] = Encapsulation efficiency of RNA (QUANT-IT RIBOGREEN RNA assay); format: physicochemical; details: Table 1A
Procedure, shortened: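 RiboGreen fluorescence (ex ~480, em ~520 nm) compared between intact samples and Triton X-100-lysed samples after 15 min at 37 °C in TE buffer, pH 7.5. Percent free RNA is the blank-corrected intact/disrupted ratio.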

[3] = test system: luciferase (Luc) mRNA; test: Luc expression in liver, lung, spleen and femur 6 hours after intravenous administration; format: in vivo; details: mice, 0.5 mpk; for Total Flux Liver / Total Flux Lung / Total Flux Spleen: intravenous
Procedure, shortened: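 LNP-formulated mRNA given IV to mice (n=3) at 0.5 mpk; at 6 h, bioluminescence imaged ex vivo 15 min after IP D-luciferin (15 mg/mL, 200 μL), organs imaged within 25 min. Values are total flux by region of interest.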

[4] = Apparent (surface) pKa of the LNP formulation (TNS assay); format: physicochemical; details: for pKa: Table 1A
Procedure, shortened: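 Fluorescence of TNS probe added to LNP samples (mRNA 0.04 mg/mL) was read across 21 buffers of pH about 3-12, triplicate per pH. The inflection point of the sigmoidal fluorescence-vs-pH curve, […], gives apparent pKa; method validated in 1× PBS and Tris/sucrose buffer.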

[5] = test system: luciferase (Luc) mRNA; test: Luc expression, whole body bioluminescence after intravenous administration to mice; format: in vivo; details: for Lipid/MC3 AUC / AUC (p/s * h): Table 3D; for AUC (p/s * h): Luc; for Total Flux 3 hours / Total Flux 6 hours / Total Flux 24 hours: mice, i.v., 0.5 mg/kg, Luc mRNA; for 6 h BLI Lipid/MC3: Table 3E
Procedure, shortened: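 Bioluminescence, read as region-of-interest total flux at 3, 6 and 24 h, followed a single 0.5 mg/kg intravenous dose of Luc mRNA-loaded nanoparticles in mice (n=6). Luciferin substrate (200 μL, 15 mg/mL in PBS) was injected intraperitoneally into CD-1 mice 15 minutes ahead of each imaging point.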

[6] = Particle size and polydispersity index of nanoparticle compositions (Zetasizer Nano ZS); format: physicochemical; details: Table 1A; for Size (nm): lipid:DSPC:cholesterol:PEG-DMG 50:10:38.5:1.5 mol %
Procedure, shortened: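 Values are size and PDI readings from a Zetasizer Nano ZS. Measurements are taken in 1×PBS; zeta potential, by contrast, uses 15 mM PBS.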

[7] = test system: luciferase (Luc) mRNA; test: Luc expression (total flux) after intramuscular administration; format: in vivo, mice; details: Table 3H; intramuscular, Luc
Procedure, shortened: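 Total-flux luciferase signal in mice after one intramuscular injection. Nanoparticle formulations contained modified Luc mRNA, either alone or co-dosed with H10 mRNA (e.g., 0.0005 or 0.005 mpk of each), giving 0.001 or 0.01 mpk.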

[8] = second column (head also says 6 h)

Structure (SMILES)	% Dose Remaining in Liver 6 h [1, 8] [%]	% Dose Remaining in Liver 6 h [1] [%]	EE (%) [2] [%]	Total Flux Liver [3]	Total Flux Lung [3]	Total Flux Spleen [3]	pKa [4]	Lipid/MC3 AUC ([5]; intravenous)	AUC (p/s * h) ([5]; intravenous)	Total Flux 3 hours [5]	Total Flux 6 hours [5]	Total Flux 24 hours [5]	PDI [6]	Size (nm) [6] [nm]	% Remaining dose at 6 h [1] [%]	% Remaining dose at 24 h [1] [%]	6 h BLI Lipid/MC3 ([5]; intravenous)	further results
CCCCCCCCCOC(=O)CCCCCCCN(CCO)CCCCCCCCCC(CCCCCCCC)CCCCCCCC [Compound 153, Nonyl 8-((2-hydroxyethyl)(10-octyloctadecyl)amino)octanoate]	<1	<1	98.39	1.18E+09	6.42E+06	1.42E+08	6.580	1.4	2.697E+011	1.69E+10	2.28E+10	5.10E+08	0.150	83.7				
CCCCCCCCC(CCCCCCCC)C(=O)OCCCCCCCN(CCO)C(C)CCCCCCCCOC(=O)CCCCCCC (centres unmarked) [Compound 162, 7-((2-Hydroxyethyl)(10-(octanoyloxy)decan-2-yl)amino)heptyl 2-octyldecanoate]			94.1				6.08						0.14	72.7	0.283	0	0.28	
CCCCCCCCCOC(=O)CCCCCCCN(CCCCCCCC(=O)OC(CCCCCCCC)CCCCCCCC)C(C)CO (centres unmarked) [Compound 157, Heptadecan-9-yl 8-((1-hydroxypropan-2-yl)(8-(nonyloxy)-8-oxooctyl)amino)octanoate]	<1	<1	96.04	2.27E+09	6.70E+06	5.15E+07	6.275	1.3	2.481E+011	8.54E+09	2.22E+10	1.90E+08	0.093	61				AUC (p/s * h) [7]: 4.68E+08 p/s * h; Lipid/MC3 AUC [7]: 0.80; App. pKa ([4]; Table 3F): 6.27; Novel lipid/MC3 expression ratio, 6 hr. time point, i.v. ([5]; luciferase, intravenous, relative to MC3 formulation): 1.29
CCCCCCCCCC(C)(O)CCCCCCCCN(CCO)CCCCCCCC(=O)OC(CCCCCCCC)CCCCCCCC (centres unmarked) [Compound 171, Heptadecan-9-yl 8-((9-hydroxy-9-methyloctadecyl)(2-hydroxyethyl)amino)octanoate]			85.0				6.48						0.14	100.5	51.0	35.5	2.26	
CCCCCCCCC(CCCCCCCC)OC(=O)CCCCCCCN(CCO)C(C)CCCCCCCCOC(=O)CCCCCCC (centres unmarked) [Compound 161, Heptadecan-9-yl 8-((2-hydroxyethyl)(10-(octanoyloxy)decan-2-yl)amino)octanoate]			94.3				6.08						0.09	67.6	0.203	0	0.12	
CCCCCCCCC(CCCCCCCC)OC(=O)CCCCCCCN(CCO)CCCCCCCC(=O)O[C@H](C)CCCCCCCC [Compound 172, (R)-Decan-2-yl 8-((8-(heptadecan-9-yloxy)-8-oxooctyl)(2-hydroxyethyl)amino)octanoate]			95.4				6.40						0.13	77.3	17.4	3.24	1.72	
CCCCCCCCCCCOC(=O)CCCCCN(CCO)CCCCCC(=O)OC(CCCCCCCCCC)CCCCCCCCCC [Compound 185, Henicosan-11-yl 6-((2-hydroxyethyl)(6-oxo-6-(undecyloxy)hexyl)amino)hexanoate]			98.3				6.77						0.14	69.6	33.8	29.3	0.87	
CCCCCCCCCOC(=O)CCCCCCCN(CCO)CCCCCCCC(=O)OC(COCCCCCC)COCCCCCC [Compound 183, 1,3-Bis(hexyloxy)propan-2-yl 8-((2-hydroxyethyl)(8-(nonyloxy)-8-oxooctyl)amino)octanoate]			32.3				6.54						0.24	245.3	0.076	0	0.031	
CCCCCCCCC(CCCCCCCC)OC(=O)CCCCCCCN(C)CCCCCCCCCCCC(=O)OCCCCC [Compound 150, Pentyl 12-((8-(heptadecan-9-yloxy)-8-oxooctyl)(methyl)amino)dodecanoate]	<1	<1	96.72	1.54E+09	2.20E+06	3.43E+07	6.101	1.4	2.704E+011	1.66E+10	2.31E+10	3.86E+08	0.082	63.1				
CCCCCCCCC(CCCCCCCC)OC(=O)CCCCCCCN(CCO)CCCCCCCC(=O)OCC(CCCCCCC)OC (centres unmarked) [Compound 148, Heptadecan-9-yl 8-((2-hydroxyethyl)(8-((2-methoxynonyl)oxy)-8-oxooctyl)amino)octanoate]	<1	<1	25.49	4.39E+09	3.27E+07	2.71E+09	6.646	2.6	4.965E+011	6.28E+10	3.71E+10	1.43E+09	0.200	192.7				Flux in the spleen ([3]; i.v., in words): highest
CCCCCCCOC(=O)CCCCCCCCCN(CCO)CCCCCCCCCC(=O)OC(CCCCCC)CCCCCC [Compound 186, Heptyl 10-((2-hydroxyethyl)(10-oxo-10-(tridecan-7-yloxy)decyl)amino)decanoate]			87.2				6.33						0.17	92.2	0.051	0	1.13	

— patent US12263248B2, “Compounds and compositions for intracellular delivery of therapeutic agents” (ModernaTX, Inc., priority 2018, dated 2025)
